Consider 25 compounds from patent US10172829B2 (priority 2014, dated 2019).

Where two headings read alike, the source gives them in different places.

One assay has as its target T1, TcdB CPD (Clostridioides difficile, UniProt P18177).
T1 construct: The compounds were screened against the recombinantly expressed cysteine protease domain; made in house
The assay can be described thus: biochemical. The arrangement: species or system Clostridium difficile.

The target in another assay is TcdB protease (Clostridioides difficile, UniProt P18177). As to the kind of experiment: biochemical. The arrangement: species or system Clostridium difficile.
Sequence of TcdB protease (P18177 544-797 limits assumed): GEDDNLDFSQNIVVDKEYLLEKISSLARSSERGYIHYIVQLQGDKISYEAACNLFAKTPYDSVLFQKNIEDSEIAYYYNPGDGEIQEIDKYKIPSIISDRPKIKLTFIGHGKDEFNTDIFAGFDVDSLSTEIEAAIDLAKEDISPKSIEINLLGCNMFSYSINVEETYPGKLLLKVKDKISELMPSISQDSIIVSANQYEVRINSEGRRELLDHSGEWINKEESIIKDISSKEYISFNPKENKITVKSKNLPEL
The subject of assay [1] is human foreskin fibroblast (HFF cells). As to the kind of experiment: cells. It is filed as cell-based.
The target of the next assay is TcdB (Clostridioides difficile, UniProt P18177). The assay can be described thus: Mouse TcdB toxigenic model. It is filed as in vivo. The settings on record: mice i.p. 25 ng TcdB pretreated with 100 nM ebselen.
Sequence of TcdB (P18177 2-2366 limits assumed): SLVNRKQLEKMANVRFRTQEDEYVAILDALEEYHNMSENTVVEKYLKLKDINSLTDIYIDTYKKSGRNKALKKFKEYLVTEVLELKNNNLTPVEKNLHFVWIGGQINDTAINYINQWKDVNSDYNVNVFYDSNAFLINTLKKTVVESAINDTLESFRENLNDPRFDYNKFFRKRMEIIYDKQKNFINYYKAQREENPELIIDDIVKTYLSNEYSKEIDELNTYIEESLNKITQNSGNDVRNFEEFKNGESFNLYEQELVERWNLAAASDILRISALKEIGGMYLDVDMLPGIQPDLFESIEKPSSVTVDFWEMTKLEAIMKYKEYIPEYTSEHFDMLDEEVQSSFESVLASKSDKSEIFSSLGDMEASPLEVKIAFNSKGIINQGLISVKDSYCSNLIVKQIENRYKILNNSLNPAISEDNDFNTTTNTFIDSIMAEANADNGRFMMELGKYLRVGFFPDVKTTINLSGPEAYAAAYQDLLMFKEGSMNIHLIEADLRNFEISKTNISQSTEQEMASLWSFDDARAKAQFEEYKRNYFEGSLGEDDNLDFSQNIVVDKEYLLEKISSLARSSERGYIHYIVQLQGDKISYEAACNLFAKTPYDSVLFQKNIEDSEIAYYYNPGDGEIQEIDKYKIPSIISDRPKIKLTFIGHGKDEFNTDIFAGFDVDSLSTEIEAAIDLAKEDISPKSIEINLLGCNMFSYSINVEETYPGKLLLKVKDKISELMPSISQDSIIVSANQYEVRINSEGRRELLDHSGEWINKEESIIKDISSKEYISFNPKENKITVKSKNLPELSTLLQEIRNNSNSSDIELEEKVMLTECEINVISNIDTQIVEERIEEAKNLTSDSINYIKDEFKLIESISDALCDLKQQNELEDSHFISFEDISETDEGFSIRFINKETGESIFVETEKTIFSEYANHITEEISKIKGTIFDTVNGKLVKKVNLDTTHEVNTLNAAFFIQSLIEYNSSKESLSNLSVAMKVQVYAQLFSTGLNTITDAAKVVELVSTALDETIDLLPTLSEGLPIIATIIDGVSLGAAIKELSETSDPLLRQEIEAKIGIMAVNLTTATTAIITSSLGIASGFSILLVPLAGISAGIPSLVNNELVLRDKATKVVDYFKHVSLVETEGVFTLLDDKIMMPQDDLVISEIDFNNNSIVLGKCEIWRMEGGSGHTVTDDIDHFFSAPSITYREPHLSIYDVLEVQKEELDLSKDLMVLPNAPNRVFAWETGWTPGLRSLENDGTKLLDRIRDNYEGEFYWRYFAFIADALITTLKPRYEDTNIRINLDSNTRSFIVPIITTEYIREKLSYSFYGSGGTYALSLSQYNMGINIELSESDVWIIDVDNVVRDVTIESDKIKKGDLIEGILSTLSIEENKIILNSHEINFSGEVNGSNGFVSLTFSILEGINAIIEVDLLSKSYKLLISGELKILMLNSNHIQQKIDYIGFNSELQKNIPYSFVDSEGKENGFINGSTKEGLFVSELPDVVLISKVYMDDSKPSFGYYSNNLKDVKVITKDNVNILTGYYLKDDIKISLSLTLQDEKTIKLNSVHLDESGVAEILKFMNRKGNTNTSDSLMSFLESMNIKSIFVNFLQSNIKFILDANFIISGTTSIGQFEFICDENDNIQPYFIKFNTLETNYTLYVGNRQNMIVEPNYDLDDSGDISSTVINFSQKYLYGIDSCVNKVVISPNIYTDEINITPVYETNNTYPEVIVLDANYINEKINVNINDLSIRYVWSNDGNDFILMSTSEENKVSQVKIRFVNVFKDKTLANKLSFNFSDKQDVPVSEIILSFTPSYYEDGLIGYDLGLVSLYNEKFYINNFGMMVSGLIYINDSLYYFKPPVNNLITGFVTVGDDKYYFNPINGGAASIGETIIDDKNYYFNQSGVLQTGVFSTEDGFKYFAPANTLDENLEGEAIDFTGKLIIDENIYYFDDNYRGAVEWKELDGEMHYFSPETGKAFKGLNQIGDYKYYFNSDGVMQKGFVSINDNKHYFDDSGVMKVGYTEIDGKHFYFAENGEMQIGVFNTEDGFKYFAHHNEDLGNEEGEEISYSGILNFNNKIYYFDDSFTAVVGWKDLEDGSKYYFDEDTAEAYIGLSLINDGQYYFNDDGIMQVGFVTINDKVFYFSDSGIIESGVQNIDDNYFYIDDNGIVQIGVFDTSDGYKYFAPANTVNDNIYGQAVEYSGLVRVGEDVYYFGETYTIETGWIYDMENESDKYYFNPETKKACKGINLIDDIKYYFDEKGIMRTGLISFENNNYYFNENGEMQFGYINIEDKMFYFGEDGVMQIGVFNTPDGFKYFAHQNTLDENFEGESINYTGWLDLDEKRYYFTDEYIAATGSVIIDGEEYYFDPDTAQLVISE
The target of another assay is full length TcdB (Clostridioides difficile, UniProt P18177). The settings on record: read-out: IC50 of inhibition of labeling of the CPD, IP6 activated, AWP-19 labeling.

T1 sequence (P18177 544-799 limits assumed): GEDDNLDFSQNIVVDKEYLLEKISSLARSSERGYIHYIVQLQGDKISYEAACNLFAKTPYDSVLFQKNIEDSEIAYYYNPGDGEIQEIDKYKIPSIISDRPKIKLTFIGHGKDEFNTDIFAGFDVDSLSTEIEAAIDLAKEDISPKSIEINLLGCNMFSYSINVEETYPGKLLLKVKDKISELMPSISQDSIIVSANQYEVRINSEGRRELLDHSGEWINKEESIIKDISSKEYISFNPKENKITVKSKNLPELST

As a reminder, the IC50 is the midpoint of a concentration-inhibition curve. In the case of `COC(=O)N1CCN(C(=O)Cn2sc3nc(C)cc(C)c3c2=O)CC1` [STF 102635], on TcdB CPD, the IC50 is 4.84 µM.
On the same count and under the same terms, the same measure for `Cc1cc(C)c2c(=O)n(CC(=O)NCCCSC3CCCCC3)sc2n1` [STF 102625]: 1.32 µM; for `COCCNC(=O)Cn1sc2nc(C)cc(C)c2c1=O` [STF 102766]: 2.38 µM.
For `Cc1c(Cl)cccc1NC(=O)c1ccccc1[Se][Se]c1ccccc1C(=O)Nc1cccc(Cl)c1C` [MG-61, 2,2′-diselane-1,2-diylbis[N-(3-chloro-2-methylphenyl)benzamide]], it took 5.97 µM to reach half-maximal inhibition at TcdB protease (IC50).
Still for that read-out and setting: the same measure for `Cc1ccc(NC(=O)c2ccccc2[Se][Se]c2ccccc2C(=O)Nc2ccc(C)cc2Cl)c(Cl)c1` [MG-12, 2,2′-diselane-1,2-diylbis[N-(2-chloro-4-methylphenyl)benzamide]]: 3.98 µM; for `O=c1c2ccccc2[se]n1-c1ccc(Cl)cc1F` [MG-34, 2-(4-chloro-2-fluorophenyl)-1,2-benzoselenazol-3-one]: 6.5 µM.
Regarding `Cc1cc(C)c2c(=O)n(CC(=O)NC(C)CCc3ccccc3)sc2n1` (stereo not drawn) [STF 102645], the IC50 against TcdB CPD worked out at 3.99 µM.
With `O=C(Nc1ccc(F)cc1Cl)c1ccccc1[Se][Se]c1ccccc1C(=O)Nc1ccc(F)cc1Cl` [MG-40, 2,2′-diselane-1,2-diylbis[N-(2-chloro-4-fluorophenyl)benzamide]], the IC50 against TcdB protease came to 7.38 µM.
What is called EC50 is the concentration at which the effect is half-maximal. As for `O=c1c2ccccc2[se]n1-c1ccccc1` [Ebselen, 2-phenyl-1,2-benzoselenazol-3-one], the IC50 against TcdB protease is 5.14 µM; on full length TcdB, 0.0172 µM. For the same compound, the values for the EC50 in assay [1] (read-out: EC50 of blocking cell rounding) and in assay [1] (read-out: EC50 of protective effect against cell rounding) were 0.021 µM and 0.217 µM, respectively. Also, the “changes in vital signs (clinical signs of toxin action)” value at TcdB (72 hours) is “no significant changes in vital signs”. Also, on TcdB (monitored three days), the survival rate stood at 100%.
Regarding `Cc1ccc(Cl)c(NC(=O)c2ccccc2[Se][Se]c2ccccc2C(=O)Nc2cc(C)ccc2Cl)c1` [MG-10, 2,2′-diselane-1,2 - diylbis[N-(2-chloro-5-methylphenyl)benzamide]], the IC50 on TcdB protease came out at 7.33 µM.
The same measure, in the same setting: the same measure for `O=C(Nc1ccc(F)cc1F)c1ccccc1[Se][Se]c1ccccc1C(=O)Nc1ccc(F)cc1F` [MG-33, 2,2′-diselane-1,2-diylbis[N-(2,4-difluorophenyl)benzamide]]: 2.7 µM; for `O=C(Nc1ccc(F)c(Cl)c1)c1ccccc1[Se][Se]c1ccccc1C(=O)Nc1ccc(F)c(Cl)c1` [MG-43, 2,2′-diselane-1,2-diylbis[N-(3-chloro-4-fluorophenyl)benzamide]]: 5.09 µM.
On the same count and under the same terms, the same measure for `Cc1ccc(-n2[se]c3ccccc3c2=O)cc1` [MG-13, 2-(4-methylphenyl)-1,2-benzoselenazol-3-one]: 4.9 µM.
Compound `Cc1cc(C)c2c(=O)n(CC(=O)NCc3ccc4c(c3)OCO4)sc2n1` [STF 102654] returned an IC50 against TcdB CPD of 3.9 µM.
The compound `COc1ccc(Cl)cc1NC(=O)c1ccccc1[Se][Se]c1ccccc1C(=O)Nc1cc(Cl)ccc1OC` [MG-7, 2,2′-diselane-1,2-diylbis[N-(5-chloro-2-methoxyphenyl)benzamide]] displayed an IC50 at TcdB protease of 9.6 µM.
Still for that read-out and setting: the same measure for `COc1ccc(C(C)(C)C)cc1-n1[se]c2ccccc2c1=O` [MG-8, 2-(2-methoxy-5-t-butylphenyl)-1,2-benzoselenazol-3-one]: 8.5 µM.
`Cc1cc(C)c2c(=O)n(CC(=O)NCCc3ccc(Cl)cc3)sc2n1` [STF 102655] came in with an IC50 on TcdB CPD of 3.14 µM.
For `COc1cccc(NC(=O)c2ccccc2[Se][Se]c2ccccc2C(=O)Nc2cccc(OC)c2)c1` [MG-56, 2,2′-diselane-1,2-diylbis[N-(3-methoxyphenyl)benzamide]], half-maximal inhibition on TcdB protease (IC50) required 3.95 µM.
On to `CCOCCCNC(=O)Cn1sc2nc(C)cc(C)c2c1=O` [STF 102644], for which the IC50 against TcdB CPD came to 2.81 µM.
On TcdB protease, `O=C(Nc1ccccc1F)c1ccccc1[Se][Se]c1ccccc1C(=O)Nc1ccccc1F` [MG-31, 2,2′-diselane-1,2-diylbis[N-(2-fluorophenyl)benzamide]] gave an IC50 of 4.92 µM.
The compound `CCCCNC(=O)Cn1sc2nc(C)cc(C)c2c1=O` [STF 102686] came in with an IC50 against TcdB CPD of 1.98 µM.
For the compound `O=c1c2ccccc2[se]n1-c1ccccc1O` [MG-174, 2-(2-hydroxyphenyl)-1,2-benzoselenazol-3-one], the IC50 at TcdB protease was 4.86 µM.
The same measure, in the same setting: the same measure for `COc1ccc(C)cc1-n1[se]c2ccccc2c1=O` [MG-2, 2-(2-methoxy-5-methylphenyl)-1,2-benzoselenazol-3-one]: 5.58 µM.
Still for that read-out and setting: the same measure for `COc1ccc(-n2[se]c3ccccc3c2=O)c(C)c1` [MG-1, 2-(4-methoxy-2-methylphenyl)-1,2-benzoselenazol-3-one]: 6.47 µM; for `O=c1c2ccccc2[se]n1-c1ncccc1O` [MG-48, 2-(3-hydroxypyridin-2-yl)-1,2-benzoselenazol-3-one]: 7.44 µM.
